Laboratory results reported in ChEMBL document CHEMBL1149621, “The synthesis of 18beta-glycyrrhetinic acid derivatives which have increased antiproliferative and apoptotic effects in leukemia cells” (2007).
Active and inactive are the calls of the source. The rule behind the calls is not given here.

What was measured:
HL-60 [1] = assay: Induction of apoptosis in human HL60 cells at 80 uM after 6 hrs by fluorescence microscopy; type: functional
HL-60 [2] = assay: Antiproliferative activity against human HL60 cells after 72 hrs; type: functional; settings: HL-60, 72 h
HL-60 [3] = assay: Induction of apoptosis in human HL60 cells assessed as accumulation of cells in subG1 phase at 80 uM after 6 hrs by FACS method; type: functional
HL-60 [4] = assay: Induction of apoptosis in human HL60 cells assessed as DNA fragmentation at 80 uM after 6 hrs; type: functional, cell-based

| Structure (SMILES) | GI50 (HL-60 [2]) [µM] | Activity (HL-60 [1]) [%] | Activity (HL-60 [3]) [%] | Activity (HL-60 [4]) |
| --- | --- | --- | --- | --- |
| CCO/N=C1\CC[C@]2(C)C3C(=O)C=C4[C@@H]5C[C@](C)(C(=O)OC)CC[C@]5(C)CC[C@@]4(C)[C@]3(C)CC[C@H]2C1(C)C (stereo partly drawn) | 19.1 | 8.6 |  |  |
| CCC(=O)O/N=C1\CC[C@]2(C)C3C(=O)C=C4[C@@H]5C[C@](C)(C(=O)O)CC[C@]5(C)CC[C@@]4(C)[C@]3(C)CC[C@H]2C1(C)C (stereo partly drawn) | 57.7 | 27.7 |  |  |
| CCCO/N=C1\CC[C@]2(C)C3C(=O)C=C4[C@@H]5C[C@](C)(C(=O)O)CC[C@]5(C)CC[C@@]4(C)[C@]3(C)CC[C@H]2C1(C)C (stereo partly drawn) | 20.6 | 87.3 | 80.3 | Active |
| CCCO/N=C1\CC[C@]2(C)C3C(=O)C=C4[C@@H]5C[C@](C)(C(=O)OC)CC[C@]5(C)CC[C@@]4(C)[C@]3(C)CC[C@H]2C1(C)C (stereo partly drawn) | 19 | 4.9 |  |  |
| CC1(C)[C@@H](O)CC[C@]2(C)C3C(=O)C=C4[C@@H]5C[C@](C)(C(=O)O)CC[C@]5(C)CC[C@@]4(C)[C@]3(C)CC[C@@H]12 (stereo partly drawn) | 63.2 | 24.9 | 12.7 | inactive |

Second part, led by results:

| GI50 (HL-60 [2]) [µM] | Structure (SMILES) | Activity (HL-60 [1]) [%] | Activity (HL-60 [3]) [%] | Activity (HL-60 [4]) |
| --- | --- | --- | --- | --- |
| 59.6 | CC1(C)C(=O)CC[C@]2(C)C3C(=O)C=C4[C@@H]5C[C@](C)(C(=O)O)CC[C@]5(C)CC[C@@]4(C)[C@]3(C)CC[C@@H]12 (stereo partly drawn) | 28.5 |  |  |
| 24.4 | CCO/N=C1\CC[C@]2(C)C3C(=O)C=C4[C@@H]5C[C@](C)(C(=O)O)CC[C@]5(C)CC[C@@]4(C)[C@]3(C)CC[C@H]2C1(C)C (stereo partly drawn) | 59.7 | 68.7 | Active |
| 58.8 | CC(=O)O/N=C1\CC[C@]2(C)C3C(=O)C=C4[C@@H]5C[C@](C)(C(=O)O)CC[C@]5(C)CC[C@@]4(C)[C@]3(C)CC[C@H]2C1(C)C (stereo partly drawn) | 19.1 |  |  |
| 36.1 | CO/N=C1\CC[C@]2(C)C3C(=O)C=C4[C@@H]5C[C@](C)(C(=O)O)CC[C@]5(C)CC[C@@]4(C)[C@]3(C)CC[C@H]2C1(C)C (stereo partly drawn) | 60.2 | 70.9 | Active |
| 63 | CC1(C)/C(=N/O)CC[C@]2(C)C3C(=O)C=C4[C@@H]5C[C@](C)(C(=O)O)CC[C@]5(C)CC[C@@]4(C)[C@]3(C)CC[C@@H]12 (stereo partly drawn) | 24.5 |  |  |
